Values of other authors, collected in patent US12023406B2, “Gastric residence systems with release rate-modulating films” (Lyndra Therapeutics, Inc., priority 2017, dated 2024).

Settings: gastric pH range

For Cc1nc2n(c(=O)c1CCN1CCC(c3noc4cc(F)ccc34)CC1)CCCC2 [risperidone], the “solubility at pH 1.5 versus pH 4.8” value is listed as “significantly higher at the more acidic end of the gastric pH range”.
